pIC50: −log10 of the molar value. Bounds are passed on as bounds.

Assay [1] concerns the target Recombinant human EIF2AK3 (PERK) catalytic domain (amino acids 536-1116) (Homo sapiens (Human), UniProt Q9NZJ5). The assay is described as follows: PERK In Vitro Activity Assay (isolated), TR-FRET kinase assay. The conditions noted are these: isolated PERK enzyme, 1.5 μM ATP, read-out: Biochemical IC50. In outline:
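Recombinant PERK catalytic domain was incubated with 100–200 nM GFP-eIF2a substrate in 50 mM HEPES pH 7.5, 10 mM MgCl2, 1.0 mM EGTA and 0.01% Brij-35 for 45 min at room temperature. After a 10 mM EDTA stop, 2 nM Tb-anti-phospho-eIF2a was added for 90 min, and IC50 was fitted from TR-FRET ratios by 4-parameter logistic regression.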
For orientation: TR-FRET usually uses a lanthanide donor and a delayed reading to cut background.

The test system of assay [2] is eIF2α in HEK293-EGFP-eIF2α cells. Description: PERK Cellular Assay (HEK293-EGFP-eIF2α cells, tunicamycin-induced ER stress, TR-FRET). It counts as cell-based. The conditions noted are these: tunicamycin 2 hours. In short, it runs like this:
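Cells pre-incubated with inhibitor 30 min at 37 °C, then ER stress induced with […] tunicamycin for 2 h. TR-FRET read on lysates; ratio normalized to DMSO control as percent inhibition over a 10-point, 3-fold dilution series; IC50 from 4-parameter logistic fit.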

Chain of Recombinant human EIF2AK3 (PERK) catalytic domain (amino acids 536-1116) (Q9NZJ5 536-1116): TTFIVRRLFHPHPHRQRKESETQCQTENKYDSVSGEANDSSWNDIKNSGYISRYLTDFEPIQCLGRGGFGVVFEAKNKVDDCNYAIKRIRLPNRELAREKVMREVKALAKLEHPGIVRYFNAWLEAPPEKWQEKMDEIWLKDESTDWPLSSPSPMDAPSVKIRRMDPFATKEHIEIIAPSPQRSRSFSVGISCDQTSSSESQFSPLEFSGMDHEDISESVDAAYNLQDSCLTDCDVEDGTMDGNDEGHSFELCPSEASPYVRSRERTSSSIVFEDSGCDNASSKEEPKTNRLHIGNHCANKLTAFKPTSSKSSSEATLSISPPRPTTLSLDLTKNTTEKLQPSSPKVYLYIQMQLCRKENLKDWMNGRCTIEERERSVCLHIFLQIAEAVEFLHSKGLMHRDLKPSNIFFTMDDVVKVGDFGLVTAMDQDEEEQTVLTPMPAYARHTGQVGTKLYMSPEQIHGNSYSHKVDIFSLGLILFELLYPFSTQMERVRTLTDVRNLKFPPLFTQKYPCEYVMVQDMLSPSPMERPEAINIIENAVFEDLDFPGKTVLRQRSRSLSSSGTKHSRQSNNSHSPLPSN

For the compound `[2H]C([2H])([2H])c1nc(-c2ccc(NC(=O)C(O)c3cc(F)cc(F)c3)c(F)c2F)c2c(N)ncc(C)n12` (stereo not shown) [Example 155, N-[4-[8-amino-5-methyl-3-(trideuteriomethyl)imidazo[1,5-a]pyrazin-1-yl]-2,3-difluoro-phenyl]-2-(3,5-difluorophenyl)-2-hydroxy-acetamide], the pIC50 in assay [1] is 7.60 to 9.00; in assay [2] it was 7.00 to 7.29.
For the compound `[2H]C([2H])([2H])c1nc(-c2ccc(NC(=O)C(O)c3cc(F)cc(F)c3)c(F)c2F)c2c(N)ncc(Cl)n12` (stereo not shown) [Example 156, N-[4-[8-amino-5-chloro-3-(trideuteriomethyl)imidazo[1,5-a]pyrazin-1-yl]-2,3-difluoro-phenyl]-2-(3,5-difluorophenyl)-2-hydroxy-acetamide], the negative-log IC50 (pIC50) in assay [1] and in assay [2] was 7.60 to 9.00 throughout.
In the case of `[2H]C([2H])([2H])c1nc(-c2ccc(NC(=O)C(O)c3cc(F)cc(F)c3)c(F)c2F)c2c(N)ncc(Cl)n12` (stereo not shown) [Example 157, N-[4-[8-amino-5-chloro-3-(trideuteriomethyl)imidazo[1,5-a]pyrazin-1-yl]-2,3-difluoro-phenyl]-2-(3,5-difluorophenyl)-2-hydroxy-acetamide], the pIC50 in assay [1] is 7.60 to 9.00; in assay [2], 7.00 to 7.29.
Turning to `[2H]C([2H])([2H])c1nc(-c2ccc(NC(=O)C(O)c3cc(F)cc(F)c3)c(F)c2F)c2c(N)ncc(C(F)(F)F)n12` (stereo not shown) [Example 158, N-[4-[8-amino-3-(trideuteriomethyl)-5-(trifluoromethyl)imidazo[1,5-a]pyrazin-1-yl]-2,3-difluoro-phenyl]-2-(3,5-difluorophenyl)-2-hydroxy-acetamide], the pIC50 in assay [1] and in assay [2] was 7.60 to 9.00 each time.
Turning to `[2H]C([2H])([2H])c1nc(-c2ccc(NC(=O)C(O)c3cc(F)cc(F)c3)c(F)c2F)c2c(N)ncc(C(F)(F)F)n12` (stereo not shown) [Example 159, N-[4-[8-amino-3-(trideuteriomethyl)-5-(trifluoromethyl)imidazo[1,5-a]pyrazin-1-yl]-2,3-difluoro-phenyl]-2-(3,5-difluorophenyl)-2-hydroxy-acetamide], the pIC50 in assay [1] was 7.00 to 7.29; in assay [2], 6.30 to 6.60.
With `[2H]C([2H])([2H])c1nc(-c2ccc(NC(=O)C(O)c3cc(F)cc(C(F)(F)F)c3)c(F)c2F)c2c(N)ncc(C)n12` (stereo not shown) [Example 160, N-[4-[8-amino-5-methyl-3-(trideuteriomethyl)imidazo[1,5-a]pyrazin-1-yl]-2,3-difluoro-phenyl]-2-[3-fluoro-5-(trifluoromethyl)phenyl]-2-hydroxy-acetamide], the pIC50 in assay [1] and in assay [2] was 7.60 to 9.00 throughout.
In the case of `[2H]C([2H])([2H])c1nc(-c2ccc(NC(=O)C(O)c3cc(F)cc(C(F)(F)F)c3)c(F)c2F)c2c(N)ncc(C)n12` (stereo not shown) [Example 161, N-[4-[8-amino-5-methyl-3-(trideuteriomethyl)imidazo[1,5-a]pyrazin-1-yl]-2,3-difluoro-phenyl]-2-[3-fluoro-5-(trifluoromethyl)phenyl]-2-hydroxy-acetamide], the values for the negative-log IC50 (pIC50) in assay [1] and in assay [2] were 7.60 to 9.00 and 6.60 to 7.00, respectively.
In the case of `[2H]C([2H])([2H])c1nc(-c2ccc(NC(=O)C(O)c3cc(F)cc(C(F)(F)F)c3)c(F)c2F)c2c(N)ncc(C(F)(F)F)n12` (stereo not shown) [Example 162, N-[4-[8-amino-3-(trideuteriomethyl)-5-(trifluoromethyl)imidazo[1,5-a]pyrazin-1-yl]-2,3-difluoro-phenyl]-2-[3-fluoro-5-(trifluoromethyl)phenyl]-2-hydroxy-acetamide], the negative logarithm of the IC50 (pIC50) in assay [1] and in assay [2] was 7.60 to 9.00 in each case.
In the case of `[2H]C([2H])([2H])c1nc(-c2ccc(NC(=O)C(O)c3cc(F)cc(C(F)(F)F)c3)c(F)c2F)c2c(N)ncc(C(F)(F)F)n12` (stereo not shown) [Example 163, N-[4-[8-amino-3-(trideuteriomethyl)-5-(trifluoromethyl)imidazo[1,5-a]pyrazin-1-yl]-2,3-difluoro-phenyl]-2-[3-fluoro-5-(trifluoromethyl)phenyl]-2-hydroxy-acetamide], the pIC50 in assay [1] and in assay [2] was 6.30 to 6.60 each time.
`[2H]C([2H])([2H])c1nc(-c2ccc(NC(=O)C(O)c3cc(F)cc(C(F)(F)F)c3)c(F)c2F)c2c(N)ncc(Cl)n12` (stereo not shown) [Example 164, N-[4-[8-amino-5-chloro-3-(trideuteriomethyl)imidazo[1,5-a]pyrazin-1-yl]-2,3-difluoro-phenyl]-2-[3-fluoro-5-(trifluoromethyl)phenyl]-2-hydroxy-acetamide]: the pIC50 in assay [1] and in assay [2] was 7.60 to 9.00 each time.
Regarding `[2H]C([2H])([2H])c1nc(-c2ccc(NC(=O)C(O)c3cc(F)cc(C(F)(F)F)c3)c(F)c2F)c2c(N)ncc(Cl)n12` (stereo not shown) [Example 165, N-[4-[8-amino-5-chloro-3-(trideuteriomethyl)imidazo[1,5-a]pyrazin-1-yl]-2,3-difluoro-phenyl]-2-[3-fluoro-5-(trifluoromethyl)phenyl]-2-hydroxy-acetamide], the negative-log IC50 (pIC50) was 7.30 to 7.59 in assay [1] and 6.60 to 7.00 in assay [2].
Consider `[2H]C([2H])([2H])c1nc(-c2ccc(NC(=O)C(O)c3cc(F)cc(C(F)(F)F)c3)c(F)c2F)c2c(N)nc(C)cn12` (stereo not shown) [Example 166, N-[4-[8-amino-6-methyl-3-(trideuteriomethyl)imidazo[1,5-a]pyrazin-1-yl]-2,3-difluoro-phenyl]-2-[3-fluoro-5-(trifluoromethyl)phenyl]-2-hydroxy-acetamide], for which the negative-log IC50 (pIC50) in assay [1] and in assay [2] was 7.60 to 9.00 throughout.
With `[2H]C([2H])([2H])c1nc(-c2ccc(NC(=O)C(O)c3cc(F)cc(C(F)(F)F)c3)c(F)c2F)c2c(N)nc(C)cn12` (stereo not shown) [Example 167, N-[4-[8-amino-6-methyl-3-(trideuteriomethyl)imidazo[1,5-a]pyrazin-1-yl]-2,3-difluoro-phenyl]-2-[3-fluoro-5-(trifluoromethyl)phenyl]-2-hydroxy-acetamide], the negative logarithm of the IC50 (pIC50) in assay [1] was 7.30 to 7.59; in assay [2] it was 6.60 to 7.00.
The like results for `Cc1c(-c2nc(C)n3c(C)cnc(N)c23)ccc(NC(=O)C(O)c2cccc(F)c2)c1F` (stereo not shown) [Example 168, N-(4-(8-amino-3,5-dimethyl-imidazo[1,5-a]pyrazin-1-yl)-2-fluoro-3-methyl-phenyl)-2-(3-fluorophenyl)-2-hydroxy-acetamide] were, in that order, 7.60 to 9.00 and 6.30 to 6.60.
For the compound `Cc1c(-c2nc(C)n3c(C)cnc(N)c23)ccc(NC(=O)C(O)c2cccc(F)c2)c1F` (stereo not shown) [Example 169, N-(4-(8-amino-3,5-dimethyl-imidazo[1,5-a]pyrazin-1-yl)-2-fluoro-3-methyl-phenyl)-2-(3-fluorophenyl)-2-hydroxy-acetamide], the pIC50 in assay [1] and in assay [2] was 7.60 to 9.00 in each case.
In the case of `[2H]C([2H])([2H])c1nc(-c2ccc(NC(=O)C(O)c3cccc(F)c3)nc2C)c2c(N)nc(C)cn12` (stereo not shown) [Example 170, N-[5-[8-amino-6-methyl-3-(trideuteriomethyl)imidazo[1,5-a]pyrazin-1-yl]-6-methyl-2-pyridyl]-2-(3-fluorophenyl)-2-hydroxy-acetamide], the figures for the pIC50 in assay [1] and in assay [2] were 7.60 to 9.00 and 6.60 to 7.00, respectively.
For `[2H]C([2H])([2H])c1nc(-c2ccc(NC(=O)C(O)c3cccc(F)c3)nc2C)c2c(N)nc(C)cn12` (stereo not shown) [Example 171, N-[5-[8-amino-6-methyl-3-(trideuteriomethyl)imidazo[1,5-a]pyrazin-1-yl]-6-methyl-2-pyridyl]-2-(3-fluorophenyl)-2-hydroxy-acetamide], the negative logarithm of the IC50 (pIC50) in assay [1] was 5.70 to 6.00; in assay [2], < 5.30.

A word on the pIC50: it is the IC50 on a negative log10 scale, so that one unit is a factor of ten.

(Values after US12331054B2, “Perk inhibiting imidazolopyrazine compounds” (HiberCell, Inc., priority 2019, dated 2025).)
